BindingDB's records for doi:10.1021/jm00113a023 (Abbott Laboratories, 1991)
*1 amine or outer side, *2 acyl side, *3 side chain or, on linkers, in order; H or OH if unused. Where a SMILES comes first, the peptide text is derived from it. Side-chain parts run from the residue outwards. [ ]: non-standard residue; d: D form. The star is where a group is joined. NH(1-naphthyl) = c1ccc2c(N*)cccc2c1; NHPh(4-CF3) = FC(F)(F)c1ccc(N*)cc1; hCit = NC(=O)NCCCC[C@H](N)C(=O)O; NH(2-Me-phenyl) = Cc1ccccc1N*; 3Abz = Nc1cccc(C(=O)O)c1; Orn = NCCC[C@H](N)C(=O)O; βNA = c1ccc2cc(N*)ccc2c1; Boc = CC(C)(C)OC(=O)*; X1 = Clc1cccc(Cl)c1N*; X7 = Clc1cccc(N*)c1Cl; CO = O=C([*:1])[*:2]; X2 = CC(C)c1ccccc1N*

Columns and labels:
[1] = biological target: Gastrin/cholecystokinin type B receptor (Cavia porcellus); assay: Binding affinity for Cholecystokinin type B receptor in guinea pig cortex by using [125I]BH-CCK-8 as radioligand
[2] = biological target: Gastrin/cholecystokinin type B receptor (Cavia porcellus); assay: Binding affinity towards cholecystokinin type B receptor in guinea pig cortex by using [125I]BH-CCK-8 as radioligand
[3] = biological target: Gastrin/cholecystokinin type B receptor (Cavia porcellus); assay: Binding affinity for Cholecystokinin type B receptor in guinea pig cortex by using [125I]BH-CCK-8 as radioligand; remark: listed apart in the source

Row | Structure (SMILES) | IC50 [1] [µM] | further results
1 | CC(C)(C)OC(=O)N[C@@H](Cc1c[nH]c2ccccc12)C(=O)N[C@@H](CCCCNC(N)=O)C(=O)N[C@@H](CC(=O)O)C(=O)N[C@@H](Cc1ccccc1)C(N)=O [3-{2-[2-tert-Butoxycarbonylamino-3-(1H-indol-3-yl)-propionylamino]-6-ureido-hexanoylamino}-N-(1-carbamoyl-2-phenyl-ethyl)-succinamic acid] (Boc-W[hCit]DF-NH2) | 1 | 
2 | COC(=O)c1cccc(NC(=O)NCCCC[C@H](NC(=O)[C@H](Cc2c[nH]c3ccccc23)NC(=O)OC(C)(C)C)C(=O)N[C@@H](CC(=O)O)C(=O)N[C@@H](Cc2ccccc2)C(N)=O)c1 (Boc-WK([CO-3Abz-OMe])DF-NH2) |  | IC50 [2]: 1.4 µM
3 | CC(C)c1ccccc1NC(=O)NCCCC[C@H](NC(=O)[C@H](Cc1c[nH]c2ccccc12)NC(=O)OC(C)(C)C)C(=O)N[C@@H](CC(=O)O)C(=O)N[C@@H](Cc1ccccc1)C(N)=O [3-{2-[2-tert-Butoxycarbonylamino-3-(1H-indol-3-yl)-propionylamino]-6-[3-(2-isopropyl-phenyl)-ureido]-hexanoylamino}-N-(1-carbamoyl-2-phenyl-ethyl)-succinamic acid] (Boc-WK([CO-X2])DF-NH2) | 5.7 | 
4 | CC(C)(C)OC(=O)N[C@@H](Cc1c[nH]c2ccccc12)C(=O)N[C@@H](CCCC/N=C(\S)Nc1ccccc1Cl)C(=O)N[C@@H](CC(=O)O)C(=O)N[C@@H](Cc1ccccc1)C(N)=O |  | IC50 [3]: 2.9 µM
5 | CC(C)(C)OC(=O)N[C@@H](Cc1c[nH]c2ccccc12)C(=O)N[C@@H](CCCCNC(=O)Nc1ccc(C(F)(F)F)cc1)C(=O)N[C@@H](CC(=O)O)C(=O)N[C@@H](Cc1ccccc1)C(N)=O [3-{2-[2-tert-Butoxycarbonylamino-3-(1H-indol-3-yl)-propionylamino]-6-[3-(4-trifluoromethyl-phenyl)-ureido]-hexanoylamino}-N-(1-carbamoyl-2-phenyl-ethyl)-succinamic acid] (Boc-WK([CO-NHPh(4-CF3)])DF-NH2) | 0.85 | 
6 | CC(C)(C)OC(=O)N[C@@H](Cc1c[nH]c2ccccc12)C(=O)N[C@@H](CCCCNC(=O)Nc1cccc2ccccc12)C(=O)N[C@@H](CC(=O)O)C(=O)N[C@@H](Cc1ccccc1)C(N)=O [3-[2-[2-tert-Butoxycarbonylamino-3-(1H-indol-3-yl)-propionylamino]-6-(3-naphthalen-1-yl-ureido)-hexanoylamino]-N-(1-carbamoyl-2-phenyl-ethyl)-succinamic acid] (Boc-WK([CO-NH(1-naphthyl)])DF-NH2) | 11 | 
7 | CC(C)(C)OC(=O)N[C@@H](Cc1c[nH]c2ccccc12)C(=O)N[C@@H](CCCCNC(=O)Nc1c(Cl)cccc1Cl)C(=O)N[C@@H](CC(=O)O)C(=O)N[C@@H](Cc1ccccc1)C(N)=O [3-{2-[2-tert-Butoxycarbonylamino-3-(1H-indol-3-yl)-propionylamino]-6-[3-(2,6-dichloro-phenyl)-ureido]-hexanoylamino}-N-(1-carbamoyl-2-phenyl-ethyl)-succinamic acid] (Boc-WK([CO-X1])DF-NH2) | 7 | 
8 | Cc1ccccc1NC(=O)NCCC[C@H](NC(=O)[C@H](Cc1c[nH]c2ccccc12)NC(=O)OC(C)(C)C)C(=O)N[C@@H](CC(=O)O)C(=O)N[C@@H](Cc1ccccc1)C(N)=O [3-[2-[2-tert-Butoxycarbonylamino-3-(1H-indol-3-yl)-propionylamino]-5-(3-o-tolyl-ureido)-pentanoylamino]-N-(1-carbamoyl-2-phenyl-ethyl)-succinamic acid] (Boc-W[Orn]([CO-NH(2-Me-phenyl)])DF-NH2) | 15 | 
9 | CC(C)(C)OC(=O)N[C@@H](Cc1c[nH]c2ccccc12)C(=O)N[C@@H](CCCCNC(=O)Nc1ccc2ccccc2c1)C(=O)N[C@@H](CC(=O)O)C(=O)N[C@@H](Cc1ccccc1)C(N)=O [3-[2-[2-tert-Butoxycarbonylamino-3-(1H-indol-3-yl)-propionylamino]-6-(3-naphthalen-2-yl-ureido)-hexanoylamino]-N-(1-carbamoyl-2-phenyl-ethyl)-succinamic acid] (Boc-WK([CO-βNA])DF-NH2) | 3.2 | 
10 | CC(C)(C)OC(=O)N[C@@H](Cc1c[nH]c2ccccc12)C(=O)N[C@@H](CCCCNC(=O)Nc1cccc(Cl)c1Cl)C(=O)N[C@@H](CC(=O)O)C(=O)N[C@@H](Cc1ccccc1)C(N)=O [3-{2-[2-tert-Butoxycarbonylamino-3-(1H-indol-3-yl)-propionylamino]-6-[3-(2,3-dichloro-phenyl)-ureido]-hexanoylamino}-N-(1-carbamoyl-2-phenyl-ethyl)-succinamic acid] (Boc-WK([CO-X7])DF-NH2) |  | IC50 [2]: 3 µM
